Data taken from patent US20260048063A1, “FUSED AMINO PYRIMIDINE COMPOUNDS FOR TREATMENT OF NEURODEGENERATIVE DISORDERS” (Ovid Therapeutics Inc., priority 2024, published 2026).

Tests used:
[1] = test system: mice; assay: KA induced ongoing SE, EEG, treatment 2 h after KA; type: in vivo; settings: given IP 2 h after KA
Protocol: EEG recordings and analysis. WT C57Bl/6J adult male mice (12 weeks) were anesthetized with isofluorane and implanted with EEG/EMG electrodes and allowed to recover for 7 days prior to experimentation. […] 2 h following KA administration mice were injected with a saturating concentration of diazepam (DZ) 10 mg/kg (IP) and recordings were extended for a further 60 min. […] LabChart 8 software was used for data analysis. Epileptiform activity was identified by changes in the amplitude of electrographic activity characterized by consistent changes in the power of the Fast Fourier transform (FFT) of the EEG and abnormal activity characterized by periods of rhythmic spiking lasting longer than 30 s (Moore et al., 2017, supra; Silayeva et al., 2015, supra; Sivakumaran et al., J. Neurosci. 35, 8291-8296 (2015)).
To evaluate the potential of KCC2 activators to terminate ongoing SE, the KA model described above was employed. Mice were injected with KA (20 mg/Kg; IP). […] Spectral data were then subjected to FFT and the total EEG power between 1-100 Hz of the 2 h following KA treatment (pre-drug) and 30 min following their injection (post-drug) were compared (FIG. 6B). In mice treated with DZ alone variable effects were observed, from large increases to modest reductions in EEG power, but these effects were not significant (FIG. 6C; pre=1.1±0.2×10^−6, post=4.4±7.4×10^−7 V^2, p=0.214, n=13-14 mice). […]

[2] = test system: mice; assay: TUNEL staining of hippocampal CA1 48 h after KA injection; type: in vivo
Protocol: To determine if KCC2 activators have an impact on the extent of neuronal injury, brain sections from mice that survived for 48 h after KA injection were subjected to Terminal deoxynucleotidyl transferase dUTP nick end (TUNEL) staining to visualize dead cells, and counterstained with DAPI. The number of TUNEL positive cells in the CA1 region of the hippocampus were then compared between treatment groups.

[3] = target: T1, KCC2-S940A (Homo sapiens, UniProt Q9H2X9, S963A); assay: Tl+ flux assay, HEK-293 cells expressing KCC2-S940A; type: cell-based
T1 construct: expressed in transfected cells; host or cells: HEK-293
T1 sequence (Q9H2X9 1-1116 isoform Q9H2X9-2 S940A): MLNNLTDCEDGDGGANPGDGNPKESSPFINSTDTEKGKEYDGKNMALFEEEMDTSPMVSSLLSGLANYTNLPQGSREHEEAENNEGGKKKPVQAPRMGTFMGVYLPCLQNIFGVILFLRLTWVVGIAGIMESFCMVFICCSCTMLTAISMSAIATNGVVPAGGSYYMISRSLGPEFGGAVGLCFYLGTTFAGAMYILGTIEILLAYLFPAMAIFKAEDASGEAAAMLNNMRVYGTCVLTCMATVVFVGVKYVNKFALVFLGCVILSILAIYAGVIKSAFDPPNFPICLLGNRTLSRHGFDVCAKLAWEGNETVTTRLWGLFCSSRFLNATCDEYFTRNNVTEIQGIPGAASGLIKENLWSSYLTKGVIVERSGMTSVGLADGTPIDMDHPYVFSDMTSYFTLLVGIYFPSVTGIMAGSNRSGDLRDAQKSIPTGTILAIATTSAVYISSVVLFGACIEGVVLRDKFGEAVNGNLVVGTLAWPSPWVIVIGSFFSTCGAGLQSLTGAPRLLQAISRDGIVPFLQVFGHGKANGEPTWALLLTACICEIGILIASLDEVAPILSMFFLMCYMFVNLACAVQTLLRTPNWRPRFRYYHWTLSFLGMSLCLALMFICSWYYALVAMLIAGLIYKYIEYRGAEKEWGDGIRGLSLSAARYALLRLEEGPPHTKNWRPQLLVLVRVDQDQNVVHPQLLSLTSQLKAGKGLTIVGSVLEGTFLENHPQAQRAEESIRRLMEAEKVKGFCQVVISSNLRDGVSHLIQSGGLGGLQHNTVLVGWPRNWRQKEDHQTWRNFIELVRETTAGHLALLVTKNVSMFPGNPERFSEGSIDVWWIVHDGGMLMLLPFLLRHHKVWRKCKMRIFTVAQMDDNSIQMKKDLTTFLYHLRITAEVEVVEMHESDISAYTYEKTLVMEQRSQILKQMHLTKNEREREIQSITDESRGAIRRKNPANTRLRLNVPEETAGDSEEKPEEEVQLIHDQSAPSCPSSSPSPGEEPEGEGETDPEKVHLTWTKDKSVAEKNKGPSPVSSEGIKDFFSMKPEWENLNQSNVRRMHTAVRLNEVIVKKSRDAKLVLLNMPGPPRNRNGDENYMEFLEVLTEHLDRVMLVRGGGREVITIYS
Protocol: FLIPR TI Flux assay. HEK-293 cells were washed with HBSS, and then incubated with loading buffer containing TI sensitive fluorescent dye (https://www.moleculardevices.com), 20 μM bumetanide 20 μM ouabain and 2.5 mM probenecid for 1 h at room temperature (RT) under control conditions or with drugs in the dark using a FlexStation 3 microplate reader (Molecular Devices) and imaged […] for 30 min. Stimulus buffer was added containing 5 mM K^+/0.5 mM Tl^+ and cells were imaged every 1.5 over a 190 second time course The initial rate Tl^+ uptake (Relative Fluorescence Units (RFU) per second) was determined following addition of the stimulus buffer as outlined previously (Conway et al., 2017, supra) (Lee et al., 2022, supra).
Several studies have shown that the activity and plasma membrane accumulation of KCC2 is potentiated via phosphorylation of S940, a process mediated by the activity of protein kinase C and protein phosphatase 1 (Lee et al., 2011, supra; Lee et al., J Biol Chem 282, 29777-29784 (2007); Moore et al., Proc. Natl. Acad. Sci. U.S.A. 115, 10166-10171 (2018); Moore et al., Trends Neurosci. 40, 555-571 (2017); Silayeva et al., Proc. Natl. Acad. Sci. U.S.A. 112, 3523-3528 (2015)). […] Compared to KCC2, effects on KCC3, KCC4, and NKCC1 were only seen at concentrations more than 35-fold that of KCC2 (>100 μM) (FIG. 1G).

[4] = test system: mice; assay: KA induced SE, EEG, injection directly into the hippocampus; type: in vivo; settings: intrahippocampal pretreatment, DZ 2 h after KA
Protocol: 30 or 60 min later mice were injected with KA (20 mg/kg) and 2 h later with DZ as detailed above.

[5] = PK study, brain and plasma levels by LC-MS/MS; type: in vivo, mice
Protocol: PK studies. […] Plasma and brain samples were rapidly frozen on dry ice.
Drug accumulation in the brain was examined following SC injection (FIG. 4C; 50 mg/kg).

[6] = test system: mice; assay: Kainic acid (KA) induced SE, EEG recording, pretreatment; type: in vivo; settings: 50 mg/kg SC pretreatment; vehicle 4.2±2.4×10^−6
Excerpt: This model was chosen due to the similarities with patients undergoing SE, as KA-induced seizures become refractory to benzodiazepines (BDZs) within minutes (Betjemann and Lowenstein, Lancet Neurol 14, 615-624 (2015); Crawshaw and Cock, (2020a) [Seizure: Eur. J. Epilep. 75 (2020) 145-152] Seizure 80, 282; Lee et al., 2022, supra; Reddy and Kuruba, Int J Mol Sci 14, 18284-18318 (2013)).
EEG recordings and analysis. WT C57Bl/6J adult male mice (12 weeks) were anesthetized with isofluorane and implanted with EEG/EMG electrodes and allowed to recover for 7 days prior to experimentation. […] 2 h following KA administration mice were injected with a saturating concentration of diazepam (DZ) 10 mg/kg (IP) and recordings were extended for a further 60 min. […] LabChart 8 software was used for data analysis. […]
To provide quantitative insights on the effects of KA, raw EEG recordings were subject to Fast-Fourier transformation (8K FFT size, Hann (cosine-bell), 87.50% window overlap) for frequencies between 0-100 Hz 2 h after KA injection (Lee et al., 2022, supra).

[7] = test system: panel of 144 protein kinases; assay: SelectScreen protein kinase panel; type: biochemical; settings: 144 protein kinases incl. PKC isoforms, OSR1, SPAK, WNK
Protocol: Aliquots of HEK-293 cells expressing KCC2 were exposed to 30 μM SSA, heated from 37-55° C. The remaining level of soluble native KCC2 at each temperature was measured by immunoblotting and normalized to the level seen at 37° C. which was given a value of 1. […] This panel included protein kinase C isoforms, OSR1, SPAK (STK39) and with-no-lysine kinases (WNK), all of which phosphorylate KCC2 on multiple residues to indirectly modify its activity (Kahle et al., 2013, supra; Smalley et al., 2020, supra).

[8] = test system: mice; settings: in vivo

Structure (SMILES)	mean time to suppression (EEG power reduced to 50%) [1] [min]	TUNEL positive CA1 cells [2] [dead cells/ROI]	activity of KCC2-S940A construct [3]	effect of DZ on seizure parameters in pretreated mice [4]	brain level 8 h later ([5]; 50 mg/kg SC)	time of maximal concentration in the brain ([5]; 50 mg/kg SC) [h]	concentration at 30 min ([5]; mouse, in vivo, 25 mg/kg IV bolus, read-out: accumulation in brain and plasma, third value not assigned) [µM]	total EEG power 2 h after KA (pre DZ) [6]	activity of the kinase panel [7]	effects on mouse behavior in the open field [8]
CN1C(=O)CN=C(c2ccccc2)c2cc(Cl)ccc21 [DZ, diazepam]	32.5 ± 6.7	40.93±3.35								
C[C@@H]1CN(c2nc3c(c(Nc4ccc(C5CCCCC5)cc4)n2)COC3)CCO1 [Compound A, (R)—N-(4-cyclohexylphenyl)-2-(2-methylmorpholino)-5,7-dihydrofuro[3,4-d]pyrimidin-4-amine]			increased the activity of KCC2-S940A construct	DZ significantly reduced seizure parameters	maintained	4	11.2	6.9±3.2×10^−7 V^2	did not modify the activity	no gross effects on mouse behavior
